Assay results as given in US9409907B2, “Inhibitor compounds” (Cancer Research Technology Limited, priority 2012, dated 2016).

Target: full length MPS1 (Homo sapiens (Human), UniProt P33981)
Test: Measurement of inhibition of MPS1 kinase (Caliper EZ reader mobility-shift enzyme assay)
Format: biochemical
Settings: full length MPS1 12.5 nM or 3 nM, H236 peptide 5 μM, ATP 10 μM, 60 min at room temperature
Protocol: Measurement of Inhibition of MPS1 Kinase
The reaction was carried out for 60 min at room temperature and stopped by the addition of buffer (10 μl) containing 20 mM EDTA, 0.05% (v/v) Brij-35, in 0.1M HEPES-buffered saline (Free acid, Sigma, UK). The plate was read on a Caliper EZ reader II (Caliper Life Sciences).
The % inhibition of the compounds is calculated relative to the means of selected control wells.

Sequence of full length MPS1 (P33981 whole entry): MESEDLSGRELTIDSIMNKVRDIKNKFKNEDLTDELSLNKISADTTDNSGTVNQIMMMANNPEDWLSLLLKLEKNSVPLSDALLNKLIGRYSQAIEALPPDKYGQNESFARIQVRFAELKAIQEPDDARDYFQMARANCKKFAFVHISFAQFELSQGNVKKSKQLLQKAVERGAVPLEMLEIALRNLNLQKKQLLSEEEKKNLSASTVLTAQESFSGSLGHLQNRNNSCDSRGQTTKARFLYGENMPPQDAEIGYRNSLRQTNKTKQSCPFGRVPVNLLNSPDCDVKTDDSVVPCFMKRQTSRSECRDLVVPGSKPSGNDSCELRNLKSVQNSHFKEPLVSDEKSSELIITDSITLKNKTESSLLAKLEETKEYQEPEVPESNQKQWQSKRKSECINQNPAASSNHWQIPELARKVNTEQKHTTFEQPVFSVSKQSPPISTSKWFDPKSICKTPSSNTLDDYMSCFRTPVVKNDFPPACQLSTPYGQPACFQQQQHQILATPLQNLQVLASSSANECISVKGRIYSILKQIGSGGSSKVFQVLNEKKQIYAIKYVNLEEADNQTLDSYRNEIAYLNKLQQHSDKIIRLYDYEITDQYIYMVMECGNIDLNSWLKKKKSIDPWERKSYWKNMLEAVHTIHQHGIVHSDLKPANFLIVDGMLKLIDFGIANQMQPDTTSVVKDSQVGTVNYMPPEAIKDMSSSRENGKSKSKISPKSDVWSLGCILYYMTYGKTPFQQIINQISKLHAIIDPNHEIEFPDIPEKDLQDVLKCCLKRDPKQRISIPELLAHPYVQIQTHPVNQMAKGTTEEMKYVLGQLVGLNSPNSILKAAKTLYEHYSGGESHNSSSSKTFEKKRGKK

| Structure (SMILES) | IC50 |
| --- | --- |
| COc1cc(-c2cnn(C)c2)ccc1Nc1ncc2ccnc(NC3CCN(C)CC3)c2n1 [Example 113, N^2-(2-methoxy-4-(1-methyl-1H-pyrazol-4-yl)phenyl)-N^8-(1-methylpiperidin-4-yl)pyrido[3,4-d]pyrimidine-2,8-diamine] | 9 nM |
| COc1cc(-c2cnn(C)c2)ccc1Nc1ncc2ccnc(NC(C)(C)CO)c2n1 [Example 114] | 17 nM |
| COc1cc(-c2cnn(C)c2)ccc1Nc1ncc2ccnc(N3CC4(COC4)C3)c2n1 [Example 115, N-(2-methoxy-4-(1-methyl-1H-pyrazol-4-yl)phenyl)-8-(2-oxa-6-azaspiro[3.3]heptan-6-yl)pyrido[3,4-d]pyrimidin-2-amine] | 3 nM |
| COc1cc(-c2cnn(C)c2)ccc1Nc1ncc2ccnc(NCC3CCO3)c2n1 (stereo not drawn) [Example 116, N^2-(2-methoxy-4-(1-methyl-1H-pyrazol-4-yl)phenyl)-N8-(oxetan-2-ylmethyl)pyrido[3,4-d]pyrimidine-2,8-diamine] | 8 nM |
| COc1cc(-c2cnn(C)c2)ccc1Nc1ncc2ccnc(N3CCS(=O)(=O)CC3)c2n1 [Example 118, 4-(2-((2-methoxy-4-(1-methyl-1H-pyrazol-4-yl)phenyl)amino)pyrido[3,4-d]pyrimidin-8-yl)thiomorpholine 1,1-dioxide] | 11 nM |
| COc1cc(-c2cnn(C)c2)ccc1Nc1ncc2ccnc(N3CC4(CCOCC4)C3)c2n1 [Example 119, N-(2-methoxy-4-(1-methyl-1H-pyrazol-4-yl)phenyl)-8-(7-oxa-2-azaspiro[3.5]nonan-2-yl)pyrido[3,4-d]pyrimidin-2-amine] | 3 nM |
| COc1cc(-c2cnn(C)c2)ccc1Nc1ncc2ccnc(N3CC4(CCOC4)C3)c2n1 [Example 120, N-(2-methoxy-4-(1-methyl-1H-pyrazol-4-yl)phenyl)-8-(6-oxa-2-azaspiro[3.4]octan-2-yl)pyrido[3,4-d]pyrimidin-2-amine] | 3 nM |
| COc1cc(-c2cnn(C)c2)ccc1Nc1ncc2ccnc(N3CC(C#N)C3)c2n1 [Example 121, 1-(2-(2-methoxy-4-(1-methyl-1H-pyrazol-4-yl)phenylamino)pyrido[3,4-d]pyrimidin-8-yl)azetidine-3-carbonitrile] | 8 nM |
| COc1cc(-c2cnn(C)c2)ccc1Nc1ncc2ccnc(N3CCC4(CCOC4)C3)c2n1 (stereo not drawn) [Example 122, N-(2-methoxy-4-(1-methyl-1H-pyrazol-4-yl)phenyl)-8-(2-oxa-7-azaspiro[4.4]nonan-7-yl)pyrido[3,4-d]pyrimidin-2-amine] | 3 nM |
| COc1cc(-c2cnn(C)c2)ccc1Nc1ncc2ccnc(N3CCCC4(COC4)C3)c2n1 [Example 123, N-(2-methoxy-4-(1-methyl-1H-pyrazol-4-yl)phenyl)-8-(2-oxa-6-azaspiro[3.5]nonan-6-yl)pyrido[3,4-d]pyrimidin-2-amine] | 11 nM |
| COc1cc(-c2cnn(C)c2)ccc1Nc1ncc2ccnc(NCC3(F)COC3)c2n1 [Example 124, N^8-((3-fluorooexetan-3-yl)methyl)-N^2-(2-methoxy-4-(1-methyl-1H-pyrazol-4-yl)phenyl)pyrido[3,4-d]pyrimidine-2,8-diamine] | > 1000 nM |
| COc1cc(-c2cnn(C)c2)ccc1Nc1ncc2ccnc(NCCO)c2n1 [Example 126, 2-(2-(2-Methoxy-4-(1-methyl-1H-pyrazol-4-yl)phenylamino)pyrido[3,4-d]pyrimidin-8-ylamino)ethanol] | 11 nM |
| COCCNc1nccc2cnc(Nc3ccc(-c4cnn(C)c4)cc3OC)nc12 [Example 127, N^2-(2-Methoxy-4-(1-methyl-1H-pyrazol-4-yl)phenyl)-N^8-(2-methoxyethyl)pyrido[3,4-d]pyrimidine-2,8-diamine] | 8 nM |
| COc1cc(-c2cnn(C)c2)ccc1Nc1ncc2ccnc(NC(CO)CO)c2n1 [Example 130, 2-(2-(2-Methoxy-4-(1-methyl-1H-pyrazol-4-yl)phenylamino)pyrido[3,4-d]pyrimidin-8-ylamino)propane-1,3-diol] | 4 nM |
| COCC(CO)Nc1nccc2cnc(Nc3ccc(-c4cnn(C)c4)cc3OC)nc12 (stereo not drawn) [Example 131, 3-Methoxy-2-(2-(2-methoxy-4-(1-methyl-1H-pyrazol-4-yl)phenylamino)pyrido[3,4-d]pyrimidin-8-ylamino)propan-1-ol] | 4 nM |
| COc1cc(-c2cnn(C)c2)ccc1Nc1ncc2ccnc(NCC3(CO)COC3)c2n1 [Example 132, (3-((2-(2-Methoxy-4-(1-methyl-1H-pyrazol-4-yl)phenylamino)pyrido[3,4-d]pyrimidin-8-ylamino)methyl)oxetan-3-yl)methanol] | > 1000 nM |
| COc1cc(-c2cnn(C)c2)ccc1Nc1ncc2ccnc(N3CCC(CO)C3)c2n1 (stereo not drawn) [Example 133, (1-(2-(2-Methoxy-4-(1-methyl-1H-pyrazol-4-yl)phenylamino)pyrido[3,4-d]pyrimidin-8-yl)pyrrolidin-3-yl)methanol] | 3 nM |
| COc1cc(-c2cnn(C)c2)ccc1Nc1ncc2ccnc(N3CCCC(CO)C3)c2n1 (stereo not drawn) [Example 134, (1-(2-(2-Methoxy-4-(1-methyl-1H-pyrazol-4-yl)phenylamino)pyrido[3,4-d]pyrimidin-8-yl)piperidin-3-yl)methanol] | 4 nM |
| COc1cc(-c2cnn(C)c2)ccc1Nc1ncc2ccnc(N3CCOC(CO)C3)c2n1 (stereo not drawn) [Example 135, (4-(2-(2-Methoxy-4-(1-methyl-1H-pyrazol-4-yl)phenylamino)pyrido[3,4-d]pyrimidin-8-yl)morpholin-2-yl)methanol] | 4 nM |
| COc1cc(-c2cnn(C)c2)ccc1Nc1ncc2ccnc(NC[C@]3(C)CCOC3)c2n1 [Example 141, (S)—N^2-(2-methoxy-4-(1-methyl-1H-pyrazol-4-yl)phenyl)-N^3-((3-methyltetrahydrofuran-3-yl)methyl)pyrido[3,4-d]pyrimidine-2,8-diamine] | 3 nM |
| COc1cc(-c2cnn(C)c2)ccc1Nc1ncc2ccnc(NC[C@@]3(C)CCOC3)c2n1 [Example 142, (R)—N^2-(2-methoxy-4-(1-methyl-1H-pyrazol-4-yl)phenyl)-N^3-((3-methyltetrahydrofuran-3-yl)methyl)pyrido[3,4-d]pyrimidine-2,8-diamine] | 3 nM |

More lines, now with the values ahead:

| IC50 | Structure (SMILES) |
| --- | --- |
| 93 nM | COc1cc(-c2cnn(C)c2)ccc1Nc1ncc2cc(C3CC3)nc(N3CCC4(COC4)C3)c2n1 [Example 136, 6-Cyclopropyl-N-(2-methoxy-4-(1-methyl-1H-pyrazol-4-yl)phenyl)-8-(2-oxa-6-azaspiro[3.4]octan-6-yl)pyrido[3,4-d]pyrimidin-2-amine] |
| 8 nM | COc1cc(-c2cnn(C)c2)ccc1Nc1ncc2ccnc(N3CCC(OC)CC3)c2n1 [Example 138, N-(2-Methoxy-4-(1-methyl-1H-pyrazol-4-yl)phenyl)-8-(4-methoxypiperidin-1-yl)pyrido[3,4-d]pyrimidin-2-amine] |
| 6 nM | COc1cc(-c2cnn(C)c2)ccc1Nc1ncc2ccnc(N3CCN(S(C)(=O)=O)CC3)c2n1 [Example 139, N-(2-Methoxy-4-(1-methyl-1H-pyrazol-4-yl)phenyl)-8-(4-(methylsulfonyl)piperazin-1-yl)pyrido[3,4-d]pyrimidin-2-amine] |
| 4 nM | COc1cc(-c2cnn(C)c2)ccc1Nc1ncc2ccnc(N3CCC(C#N)CC3)c2n1 [Example 140, 1-(2-(2-Methoxy-4-(1-methyl-1H-pyrazol-4-yl)phenylamino)pyrido[3,4-d]pyrimidin-8yl)piperidine-4-carbonitrile] |
| 5 nM | COc1cc(-c2cnn(C)c2)ccc1Nc1ncc2ccnc(C3=CCOCC3)c2n1 [Example 144, 8-(3,6-Dihydro-2H-pyran-4-yl)-N-(2-methoxy-4-(1-methyl-1H-pyrazol-4-yl)phenyl)pyrido[3,4-d]pyrimidin-2-amine] |
| 2 nM | COc1cc(-c2cnn(C)c2C)ccc1Nc1ncc2ccnc(N3CCC4(COC4)C3)c2n1 [Example 145, N-(4-(1,5-dimethyl-1H-pyrazol-4-yl)-2-methoxyphenyl)-8-(2-oxa-6-azaspiro[3.4]octan-6-yl)pyrido[3,4-d]pyrimidin-2-amine] |
| 4 nM | COc1cc(-c2cnn(C)c2C)ccc1Nc1ncc2ccnc(NCC3(C)COC3)c2n1 [Example 146, N^2-(4-(1,5-dimethyl-1H-pyrazol-4-yl)-2-methoxyphenyl)-N^8-((3-methyloxetan-3-yl)methyl)pyrido[3,4-d]pyrimidine-2,8-diamine] |
| 2 nM | COc1cc(-c2cnn(C)c2C)ccc1Nc1ncc2ccnc(NCC(C)(C)OC)c2n1 [Example 147, N^2-(4-(1,5-dimethyl-1H-pyrazol-4-yl)-2-methoxyphenyl)-N^8-(2-methoxy-2-methylpropyl)pyrido[3,4-d]pyrimidine-2,8-diamine] |
| 3 nM | COc1cc(-c2cnn(C)c2C)ccc1Nc1ncc2ccnc(NCC3(C)CCOC3)c2n1 (stereo not drawn) [Example 148, N^2-(4-(1,5-dimethyl-1H-pyrazol-4-yl)-2-methoxyphenyl)-N^8-((3-methyltetrahydrofuran-3-yl)methyl)pyrido[3,4-d]pyrimidine-2,8-diamine] |
| 3 nM | COc1cc(-c2nncn2C)ccc1Nc1ncc2c(C)cnc(NCC(C)(C)OC)c2n1 [Example 150, N^8-(2-methoxy-2-methylpropyl)-N^2-(2-methoxy-4-(4-methyl-4H-1,2,4-triazol-3-yl)phenyl)-5-methylpyrido[3,4-d]pyrimidine-2,8-diamine] |
| 2 nM | COc1cc(-c2nncn2C)ccc1Nc1ncc2c(C)cnc(NCC(C)(C)C)c2n1 [Example 151, N^2-(2-methoxy-4-(4-methyl-4H-1,2,4-triazol-3-yl)phenyl)-5-methyl-N^8-neopentylpyrido[3,4-d]pyrimidine-2,8-diamine] |
| 7 nM | CCn1cc(-c2ccc(Nc3ncc4ccnc(NCC(C)(C)OC)c4n3)c(OC)c2)cn1 [Example 152, N^2-(4-(1-ethyl-1H-pyrazol-4-yl)-2-methoxyphenyl)-N^8-(2-methoxy-2-methylpropyl)pyrido[3,4-d]pyrimidine-2,8-diamine] |
